≈ marks a conversion by molar mass, not a printed value. Like-named read-outs stand apart in the source and are kept apart here.
Columns and labels:
[1] = Test 5: concentration of the test compounds in tumor; format: in vivo; settings: mouse, po, 25 mg/kg, 25 mg/kg po
Protocol: (§1) Administration method: The test compound scaled to a given weight was suspended in 0.5% methylcellulose to prepare an administration solution. A mouse was weighed, and the administration solution was orally administered to the mouse depending on its weight.
The picked tumor was put into a tube, and 1 mL of MeOH containing an internal standard was added to the tube. The internal standard used herein was bezafibrate, the concentration of which was 200 nM. The mixture was homogenized with an electric homogenizer to prepare a tumor extract. And, a blank tumor extract was prepared with a tumor derived from an un-treated animal in the same manner. The 100 μg/mL standard solution was diluted with MeOH to prepare a sample for calibration curve which has the desired concentration. To 50 μL of the sample for calibration curve was added 50 μL of the blank tumor extract to prepare a sample for tumor calibration curve. To 50 μL of the tumor extract was added 50 μL of MeOH to prepare a sample for analyzing tumor. Each 5 μL of the samples was analyzed with an LC-MS. The calibration curve was prepared based on the peak ratio of MS peak area of the test sample per that of the internal standard, and the concentration of the sample for tumor calibration curve. The concentration/weight of the test compound in each sample was calculated based on the peak ratio of each sample, and the calibration curve. Then, the obtained weight was divided by the weight in tumor to calculate the concentration of the test compound in tumor.

FaDu cell = assay: Test 1: growth inhibition in cancer cell (Bulk IC50); format: cell-based; settings: Homo sapiens, 96 h, adherent culture, incubated 4 days, CellTiter-Glo
Protocol: (§2) HCT-116 cell, HT-29 cell, and FaDu cell were obtained from the American Type Culture Collection (ATCC). HCT-116 cell and HT-29 cell were cultivated at 37° C. in the presence of 5% CO2 using McCoy's 5a medium containing 10% fetal bovine serum (FBS), and 1% penicillin/streptomycin; and FaDu cell was cultivated at 37° C. in the presence of 5% CO2 using MEM containing 10% FBS, 1% non-essential amino acid, 1% sodium pyruvate, and 1% penicillin/streptomycin. Each cell was seeded on μClear-plate black 384 wells (Greiner bio-one Cat. No. 781091) in 300-600 cells/well, and then each test sample was added thereto to adjust the final concentration thereof in DMSO to 0.1% and the test wells were incubated for 4 days. And then, the viable cell count of each sample was measured using CellTiter-Glo® Luminescent Cell Viability Assay (Promega), and the concentration to inhibit the cell growth in each test sample by 50% was calculated (Bulk IC50 Value; μM).

HCT-116 cell = assay: as above; format: cell-based; settings: Homo sapiens, 96 h, adherent culture, incubated 4 days, CellTiter-Glo
Protocol: as §2

HT-29 cell = assay: as above; format: cell-based; settings: Homo sapiens, 96 h, adherent culture, incubated 4 days, CellTiter-Glo
Protocol: as §2

Test 3: solubility test = format: physicochemical; settings: kinetic from dmso stock, 1% DMSO, HPLC
Protocol: Each 15 μL of each test sample (10 mM DMSO solution) was dispensed into 4 Utubes on a 96 well rack. Then, each sample was evaporated to dryness with a rotary evaporator. 3 μL of DMSO was added to each dried sample to be re-dissolved. And, 300 μL of pH 7.4 buffer was added to the 2 wells and 300 μL of pH 1.2 buffer was added to the other 2 wells. After shaking each sample solution, the samples were still stood. Then, each sample solution was centrifuged to remove insoluble matter, and 100 μL of the supernatant was picked up on a 96 well plate. Separately, 2 μL of each test sample (10 mM DMSO solution) was dispensed on a 96 well plate, and diluted with 198 μL of 50% acetonitrile to prepare each 100 μM standard solution. Further, the 100 μM standard solution was diluted with 50% acetonitrile to prepare each 10 μM standard solution. The above test samples for the solubility test and the two kinds of the standard samples were analyzed with a HPLC. The solubility of each test sample was calculated as an area ratio per the standard solutions.

[2] = Test 4: concentration of the test compounds in plasma; format: in vivo; settings: mouse, po, 25 mg/kg, 25 mg/kg po
Protocol: as §1
Blood sampling method: EDAT-2K was added to a blood collection tube, into which the blood of the mouse was sampled. The sampled blood was centrifuged to give plasma.
Preparation of standard solution: The test compound scaled to 1 mg was dissolved in 10 mL of MeOH in a volumetric flask to prepare a 100 μg/mL standard solution.
Measure of the concentration in plasma: The 100 μg/mL standard solution was diluted with MeOH to prepare a sample for calibration curve which has the desired concentration. To 50 μL of the sample for calibration curve was added 50 μL of the blank plasma to prepare a sample for plasma calibration curve. To 50 μL of the plasma sample treated with the test compound was added 50 μL of MeOH to prepare a sample for analyzing plasma. To each 100 μL of the sample for plasma calibration curve and the sample for analyzing plasma was added 150 μL of MeOH containing an internal standard respectively. The internal standard used herein was bezafibrate, the concentration of which was 200 nM. Each 5 μL of the samples was analyzed with an LC-MS. The calibration curve was prepared based on the peak ratio of MS peak area of the test sample per that of the internal standard, and the concentration of the sample for plasma calibration curve. The concentration of the test compound in each sample was calculated based on the peak ratio of each sample, and the calibration curve.

[3] = animal 1, read-out: Concentration in tumor, animal 1
[4] = animal 2, read-out: Concentration in tumor, animal 2
[5] = animal 1, read-out: Concentration in plasma, animal 1
[6] = animal 2, read-out: Concentration in plasma, animal 2
[7] = animal 3, read-out: Concentration in plasma, animal 3
[8] = mean of 3, read-out: Concentration in plasma, mean

CN1CCN(C(=O)c2c(C(F)(F)F)oc3c2C(=O)c2ccccc2C3=O)CC1 [Example 8, 3-(4-Methylpiperazine-1-carbonyl)-2-(trifluoromethyl)naphtho[2,3-b]furan-4,9-dione]
concentration at 2 hr [1, 3]: 498 ng/mL | concentration at 2 hr [1, 4]: 260 ng/mL | concentration at 2 hr ([1]; animal 3, read-out: Concentration in tumor, animal 3): 47 ng/mL | concentration at 2 hr ([1]; mean of 3, read-out: Concentration in tumor, mean): 268 ng/mL | concentration at 6 hr [1, 3]: 329 ng/mL | concentration at 6 hr [1, 4]: 157 ng/mL | IC50 (FaDu cell): 0.5 µM | IC50 (HCT-116 cell): 0.53 µM | IC50 (HT-29 cell): 0.64 µM | solubility (Test 3: solubility test; aqueous buffer, pH 7.4 buffer, read-out: Solubility pH 7.4): 138 µg/mL (≈ 352 µM) | solubility (Test 3: solubility test; simulated gastric fluid, pH 1.2 buffer, read-out: Solubility pH 1.2): 160 µg/mL (≈ 408 µM) | concentration at 2 hr [2, 5]: 508 ng/mL | concentration at 2 hr [2, 6]: 473 ng/mL | concentration at 2 hr [2, 7]: 384 ng/mL | concentration at 2 hr [2, 8]: 455 ng/mL | concentration at 6 hr [2, 5]: 351 ng/mL | concentration at 6 hr [2, 6]: 2800 ng/mL | concentration at 6 hr [2, 7]: 334 ng/mL | concentration at 6 hr [2, 8]: 1160 ng/mL
